Source: patent publication US10758522B2, “Small molecule analogs of the nemo binding peptide” (THE SCRIPPS RESEARCH INSTITUTE, priority 2015, dated 2020)

Legend:
[1] = molecular target: T1, IKK complex (IKKß, IKKα and NEMO) (Homo sapiens, UniProt Q9Y6K9); experiment: Co-immunoprecipitation of NEMO with IKKß in 293 cells; type: cell-based; details: Zinc-5 at 4 hours, Zinc-13 at 1 hour, NBD peptide at 4 hours
T1 construct: analyzed by Western blot for the level of co-precipitated NEMO; endogenous in cells; host or cells: 293 (HEK293) cells
T1 sequence (Q9Y6K9 whole entry, one chain of several): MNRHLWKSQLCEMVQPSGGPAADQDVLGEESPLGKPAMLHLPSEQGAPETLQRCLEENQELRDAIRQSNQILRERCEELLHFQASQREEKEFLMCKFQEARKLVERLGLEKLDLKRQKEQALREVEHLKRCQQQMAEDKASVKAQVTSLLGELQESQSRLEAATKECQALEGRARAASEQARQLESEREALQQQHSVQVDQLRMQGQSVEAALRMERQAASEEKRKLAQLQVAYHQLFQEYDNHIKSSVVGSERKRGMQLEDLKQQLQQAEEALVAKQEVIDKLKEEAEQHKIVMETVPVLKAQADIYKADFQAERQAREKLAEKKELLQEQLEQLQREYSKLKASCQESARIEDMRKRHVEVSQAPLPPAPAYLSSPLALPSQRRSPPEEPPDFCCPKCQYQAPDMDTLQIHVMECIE
Source text: FIG. 8 is a bar graph showing the inhibition of TNFα by NBDA-1 (Zinc-13). […] In addition, we have examined the ability of the compounds to disrupt the IKK complex, comprised of IKKß, IKKα and NEMO.
A non-functional, related compound Zinc-7 had no effect.

IKKβ-NEMO interaction = experiment: Immunoprecipitation of NEMO and IKKβ immunoblot in Raw 264.7 macrophages and HEK293 cells; type: cell-based; details: Raw 264.7 macrophages / HEK293; mimetics 100 μM, 8K-NBD 400 μM
Description: The NBD mimetics reduce the interaction between IKKg (NEMO) and IKKß. The indicated concentrations of the drugs were added to HEK 293 or Raw 264.7 cells and cell extracts prepared 30 minutes later. Following immunoprecipitation (IP) of NEMO, the Western was probed for IKKß.
After treatment with the mimetics or NBD peptide, NEMO was immunoprecipitated by an anti-NEMO antibody and IKKβ was immunoblotted to determine the binding of IKKβ to NEMO.
HEK293 or Raw264.7 cells were seeded at 1×10^6 cells/well in 6-well plates and treated with vehicle, small molecule or NBD peptide for indicated time. Cells were lysed in NP-40 lysis buffer supplemented with 1× protease inhibitor cocktails (sigma). Protein was immunoprecipitated by incubating 150 μg of lysate with 1 μg of anti-NEMO antibody (Santa Cruz) on a rotating shaker at 4° C. for 4 hrs, followed by incubation with 20 ul of Protein A agarose beads (ThermoFisher) for 1 hr. Beads were washed in NP40 buffer 3 times and PBS once. Protein was then denatured in SDS-sample buffer and resolved by MINI-PROTEAN TGX 4-15% SDS-PAGE. Anti-IKKβ (1:1000 CST) was used to assess binding of IKKβ to NEMO and anti-NEMO (1:1000 CST) or IgG were used to as a loading control.

NF-κB target genes = experiment: qRT-PCR of NF-κB target genes in LPS-stimulated Raw 264.7 cells; type: cell-based, mouse; details: Raw 264.7, LPS
Description: Effect of the NBD mimetics on expression of NF-kB regulated genes in the Raw mouse macrophage cell line. Treatment of the Raw cells with the indicated drugs prior to addition of LPS reduced NF-kB-mediated gene expression as measured by RT-PCR.
To determine whether the inhibitory effect of the mimetics is TNF-α-dependent, LPS-mediated NF-κB activation via TLR4 was examined to determine a broader inhibitory effect of the novel NBD mimetics. NF-κB was stimulated in Raw 264.7 by 1 ug/ml of LPS for 2 hr and genes transcriptionally regulated by NF-κB were determined by qRT-PCR analysis. Both an IKK active site inhibitor IKKi VII (2 μM) and the 8K-NBD peptide (400 μM) were included as positive controls and the expression of COX2, IL-6, IL-1β, TNF-α, IκBα and iNOS were assessed.
Raw 264.7 cells were treated with a 50 μM solution of the SR compound for 30 minutes, and then the mRNA was harvested 2 hours after addition of 1 μg/mL LPS.
Snap frozen tissues were preserved in RNAlater RNA stabilization solution (ThermoFisher) before processed. Total RNA was extracted from cells or tissues using TRIZOL reagent (Life Technologies) and 1500 ng of messenger RNA (mRNA) was subjected to synthesize complementary DNA (cDNA) using SuperScript VILO cDNA synthesis kit. qRT-PCR was performed in a StepOnePlus Real-Time PCR system using Platinum SYBR Green qPCR SuperMix-UDG (ThermoFisher). Target gene expression was calculated using the comparative CT method (ΔΔCT) and normalized to an internal control gene Actb (β-actin). Primers used are as follows: Ptgs2 (COX-2) forward: […]; Ptgs2 (COX-2) reverse: […]; Nfkbia (IκBα) forward: […]; Nfkbia (IκBα) reverse: […]; Il1b (IL-1β) forward: […]; Il1b (IL-1β) reverse: […]; Nos2 (iNOS) forward: […]; Nos2 (iNOS) reverse: […]; Tnf (TNF) forward: […]; Tnf (TNF) reverse: […]; Il6 (IL-6) forward: […]; Il6 (IL-6) reverse: […]. Actb (β-actin) forward: […]; Actb (β-actin) reverse: […];

mdx mice = experiment: Chronic treatment of mdx mice (Duchenne muscular dystrophy model); type: in vivo, mouse; details: ip 3 times/week for 4 weeks
Source text: Mdx mice develop normally at birth, and then undergo a massive myonecrosis starting at three weeks. Treatment of mdx mice with IKK/NF-kB inhibitors effectively reduces inflammation, block necrosis and increase muscle regeneration. Mdx mice were chronically treated with vehicle, SR12343, SR12460 or 8K-NBD starting from day 21, 3 times/week for 4 weeks. […] To determine if SR12343 and SR12460 improve muscle pathology, tibialis anterior (TA) muscle was stained with hematoxylin and eosin (H&E) to assess inflammatory infiltration, necrosis, central nucleation and fibrosis. […] Fiber size in centrally nucleated and non-centrally nucleated myofibers was also smaller in mice treated with SR12343 and 8K-NBD, indicating active reconstruction of myofiber during the regenerative phase.
To determine muscle strength post-treatment, grip strength test on forelimbs was performed 2 weeks and 4 weeks post-treatment.
HEK293 cells were grown in Dulbecco's Modification of Eagles Medium (with 4.5 g/L glucose and L-glutamine), supplemented with 10% fetal bovine serum, penicillin and streptomycin. Raw264.7 cells were cultured in RPMI-1640 media containing 10% heat-inactivated fetal bovine serum, penicillin and streptomycin. C57BL/10ScSn-Dmd^mdx/J and female C57BL/6 mice were purchased from the Jackson Laboratory. Mice were housed in the animal facilities of Scripps Fla. under constant temperature and humidity. Animal protocols used in this study were approved by Scripps Fla. Institutional Animal Care and Use Committees. Three week-old sex-matched mdx mice were dosed with SR12343 (30 mg/kg), […] (30 mg/kg), 8K-NBD peptide (10 mg/kg) or vehicle by intraperitoneal (i.p.) injection 3 times per week for 4 weeks. Mice were sacrificed at 7 weeks of age by carbon dioxide inhalation and tibialis anterior was collected for histological analysis.
Seven week-old treated or untreated mdx mice were measured for forelimb grip strength using a digital grip strength meter paired with a metal grid (Bioseb). Mice were allowed to grip the metal grid tightly and readings were obtained by gently pulling the tail backward until release. Five sequential measurements were performed and the average force was calculated.
Tissues fixed in 10% neutral buffered formalin (NBF) overnight were imbedded in paraffin. Tissue was sectioned at […] using a microtome. H&E staining was conducted following a standard protocol (REF).

[2] = test system: K14-Cre; Ercc1−/flox mice; experiment: Topical treatment of skin aging in K14-Cre; Ercc1−/flox mice; type: in vivo, mouse; details: daily
Description: To test the ability of NBDA-1 to function in vivo, the drug was tested in several models of aging. In FIG. 12, the ability of topical treatment of NBDA-1 to reduce signs of skin aging is shown. Areas on the back of normal mice or mice with enhanced skin aging (K14-Cre; Ercc1^−/flox) were shaved and then treated daily with drugs or control creams.

Ercc1−/Δ mice = experiment: Systemic treatment of Ercc1−/Δ mice, intervertebral disc proteoglycan; type: in vivo, mouse; details: IP 3× a week, 10 mg/kg for 8 weeks
Description: The ability of the compounds to work systemically was also tested. In these experiments, Ercc1^−/Δ mice with accelerated aging (lifespan of 5 months) were treated systemically, 3× a week, by IP injection at a dose of 10 mg/kg for 8 weeks. Since we previously had shown that the NF-κB is a key factor in driving intervertebral disc degenerated, we assessed the effects of treatment on proteoglycan synthesis and content in the discus following treatment.

## 8K-NBD peptide: 8K-NBD (KKKKKKKKGGTALDWSWLQTE) peptide, NEMO binding domain peptide with protein transduction domain, control [reference compound]
[1]
  level of NEMO co-immunoprecipitated with IKKß: reduced the level of co-immunoprecipitated NEMO
IKKβ-NEMO interaction
  disruption of IKKβ-NEMO interaction (NEMO IP, IKKβ blot): able to disrupt the protein-protein interaction in macrophages at 400 μM
NF-κB target genes
  iNOS expression: significantly inhibited
Mdx mice
  expression of eMyHC and Pax 7 in TA muscle (qRT-PCR): increased eMyHC expression, but to a lower extent compared to SR12343
  fiber size in centrally nucleated and non-centrally nucleated myofibers: smaller
Mdx mice; SR compounds 30 mg/kg, 8K-NBD 10 mg/kg
  tibialis anterior muscle pathology (H&E): reduced inflammatory cell infiltration and necrosis and also promoted muscle regeneration
[2]
  epidermal thickness / skin architecture: improved skin architecture and increased epidermal thickness
Ercc1−/Δ mice
  proteoglycan synthesis and content in the intervertebral disc: restored proteoglycan synthesis and content back to levels seen in normal, young mice
